# Read-outs that look alike come from different tables or passages of the source.
# Legend:
# [1] = Pharmacokinetic study in rats after intragastric administration of Farfarae Flos extract (plasma, LC-MS/MS); assay type: in vivo; conditions: for Cmax / Tmax / half-life / MRT last / MRT inf: male; for Cmax: rat, plasma, po; for MRT last: read-out: MRT(0–24h); for MRT inf: read-out: MRT(0–∞)
# Description: A high-performance liquid chromatography instrument was used to separate three types of compounds (Agilent 1200 series, USA). The HPLC instrument is composed of four parts; a G1322A degasser, G1312A Bin Pump, G1367B auto-sampler, and G1316A thermostatic column compartment. Three types of compounds and three internal standards (ISs) were separated on an Eclipse Plus C18 (4.6 × 100 mm, 1.8 μm). The mobile phase was composed of formic acid aqueous solution (A) and formic acid methanol solution (B). The concentration of formic acid in both A and B solution was 0.1% (v/v). The gradient elution was as follows. The proportion of 10% B changes to 40% from 0 min to 3mins. 40% B changes to 90% from 16 to 18 min. B is maintained at 100% from 19 to 28 min. The flow rate, sample injected volume, and column temperature was 0.35 mL·min^−1, 10 μL, and 35°C, respectively.
# Quantitative analysis of all samples was performed on Sciex API 3200 with an electrospray ionization (ESI) source. Analyst 1.6.2 workstation for instrument operation, data management, and data analysis were employed to analyze and process data (AB, Sciex). Ten analyzed compounds and three ISs were optimized during multiple reactions monitoring (MRM). […] MRM parameters of CCLA were set at 353.1-191.0. […] MRM parameters of IAB were set as 515.3-353.2 and MRM parameters of IAA were set at 515.2-353.0. MRM parameters of IAC and tussilagone were set as 515.3-352.9, 391.4-217.4, respectively.
# Twenty male rats (4 months old, weight 240 ± 20 g) were obtained commercially from Vital River Laboratory Animal Company (Beijing, China). Before the pharmacokinetic experiments, they were free to eat food and drink water for one week for adapting to the environment when the dark light cycle was 12 hours, while the temperature was maintained at 25 ± 5°C. The animal experiments were guided and strictly approved by Tianjin Hospital animal ethics committee. They were fasted for 12 hours and could only drink freely water before intragastric administration of Farfarae Flos extract. Ten rats in each group were employed for eliminating data variation caused by different animal individuals. All rats in groups 1 and group 2 were orally administrated one time at two dosages of Farfarae Flos extract (carboxymethyl cellulose sodium salt (0.5%) was used to suspend the extract to prepare the administration solution 3.90 g·kg^−1 and 7.80 g·kg^−1), respectively. Rats were anesthetized with ether. The heparinized 1.5 mL polythene tube was used to collect bank plasma samples before administering dose of the extract. About 250 μL plasma samples were collected at each collecting points of 5 min, 10 min, 0.25 h, 0.50 h, 0.75 h, 1 h, 2 h, 4 h, 8 h, 12 h, 24 h, and 36 h via fossa orbitalis after dosing. All plasma samples from collecting points need to be centrifuged at 4,000 rpm for ten minutes. The supernatant fluid of centrifuged plasma samples was obtained and immediately stored at −20°C in a refrigerator until they were analyzed.
# The maximum concentration (Cmax) and the time to reach the maximum concentration (Tmax) of ten target compounds were directly calculated by the real concentration-time data in the plasma. The data were expressed as mean ± SD.
# Ten microliters of ISs solution (contained puerarin, ferulic acid, and artemisinin) and the plasma sample (100 μL) were added into a clean tube, and then acetonitrile (400 μL) was added to precipitate protein. After centrifugation at 14000 rpm for 10 minutes, a mild nitrogen flow was used to evaporate the liquid of the supernatant to dryness. Then, the residue was dissolved in methanol (100 μL). The solution was vortexed for 3 min, mixed for 3 minutes with ultrasound, and centrifuged for 10 min. Finally, the solution (10 μL) was used to detect concentration of ten target compounds in rat plasma.
# [2] = Stability of QC samples in rat plasma (24 h, freeze-thaw, 4 weeks); assay type: in vitro ADME; conditions: six replicates; for Freeze-thaw stability, percent remaining: freeze-thaw cycles −20°C to 20°C; for Long stability Remain (%): stored at −80°C for 4 weeks; for 24 h stability Remain (%): 24 hours at 20°C
# Protocol: Stock solution of 10 analytical compounds (1.00 mg·mL^−1) and three internal standards (ISs) was dissolved in methanol and placed in the refrigerator before testing. Methanol was used to prepare ferulic acid (IS1), puerarin (IS2), and artemisinin (IS3) solutions to reach a concentration of 1 μg mL^−1, respectively. A specific volume of each analyte stock solution is mixed together to prepare the standard working solution containing 10 analytes with a concentration of 10 times at LLOQ and three levels (high, medium, and low). Quality control (QC) samples for methodological validation were prepared to obtain the final concentration by adding standard working solution (10 μL) into blank plasma samples (100 μL).
# Four concentration levels of ICB and ICA were 4, 12, 400, and 12000 ng mL^−1, respectively. Four concentration levels of caffeic acid were 10, 30, 1000, and 30000 ng·mL^−1, respectively.
# In the stability test, 24-hour stability (The samples were placed for 24 hours at 20°C and then measured), freeze-thaw cycles (The sample was injected after the temperature changing from −20°C to 20°C), and 4 weeks stability (The sample was determined after stored at −80°C for 4 weeks) of representative QC samples were all tested. All of them were assayed with six replicates.
# [3] = previous pharmacokinetic study on chlorogenic acid ref 15; cited from earlier work
# [4] = 3.9 g/kg, oral Farfarae Flos extract 3.9 g·kg^−1, mean ± SD
# [5] = rat plasma, oral Farfarae Flos extract 3.9 g·kg^−1, mean ± SD
# [6] = rat plasma, oral Farfarae Flos extract 7.8 g·kg^−1, mean ± SD
# [7] = high concentration level (3000-30000 ng·mL^−1)
# [8] = low concentration level (3-30 ng·mL^−1)
# [9] = medium concentration level (100-1000 ng·mL^−1)
# [10] = 7.8 g/kg, oral Farfarae Flos extract 7.8 g·kg^−1, mean ± SD
"Cmax [1, 4] [ng/mL]","Tmax [1, 5] [h]","half-life [1, 5] [h]","MRT last [1, 5] [h]","MRT inf [1, 5] [h]","Tmax [1, 6] [h]","half-life [1, 6] [h]","MRT last [1, 6] [h]","MRT inf [1, 6] [h]","AUC(0–24h) [1, 5] [ng/mL ∗ h]","AUC(0–∞) [1, 5] [ng/mL ∗ h]","AUC(0–24h) [1, 6] [ng/mL ∗ h]","AUC(0–∞) [1, 6] [ng/mL ∗ h]","Freeze-thaw stability, percent remaining [2, 7] [%]","Long stability Remain (%) [2, 7] [%]","Long stability Remain (%) [2, 8] [%]","Freeze-thaw stability, percent remaining [2, 9] [%]","Cmax [1, 10] [ng/mL]","Freeze-thaw stability, percent remaining [2, 8] [%]",SMILES,further results
538 ± 489,0.64 ± 0.244,2.16 ± 1.46,4.4 ± 1.71,5.41 ± 2.04,0.38 ± 0.14,1.28 ± 0.56,4.63 ± 1.36,5.32 ± 1.55,1425 ± 1046,1467 ± 1044,3611 ± 1023,3692 ± 1052,115,112,114,88.7,,,"O=C(/C=C/c1ccc(O)c(O)c1)O[C@@H]1C[C@](O)(C(=O)O)C[C@@H](O)[C@H]1O [CLA, chlorogenic acid]",MRT [3]: 5.08 ± 0.89 h; Tmax [3]: 0.70 ± 0.19 h
74 ± 52,0.69 ± 0.19,1.61 ± 1.1,4.35 ± 2.74,7.9 ± 7.34,0.36 ± 0.13,1.49 ± 0.54,6.33 ± 2.33,8.61 ± 2.66,210.2 ± 126.4,239.3 ± 125.3,965.7 ± 295.9,1028 ± 3007,87.0,114,,82.9,486 ± 273,111,"O=C(/C=C/c1ccc(O)c(O)c1)O[C@@H]1C[C@@](O)(C(=O)O)C[C@@H](O)[C@@H]1O [NCLA, neochlorogenic acid]",
0.83 ± 0.5,0.44 ± 0.38,0.28 ± 0.2,0.87 ± 0.134,3.12 ± 2.62,0.4 ± 0.33,0.82 ± 0.72,2.42 ± 2.1,6.98 ± 9.13,1.06 ± 0.564,2.19 ± 1.98,35.48 ± 42.302,47.12 ± 49.445,91.8,109,101,115,18.1 ± 13,83.9,"C=C1[C@H](OC(=O)/C=C(\C)CC)C[C@@H](C(C)C)[C@@H]2[C@@H]([C@@H](C)OC(C)=O)C(=O)C[C@@H]12 [Tussilagone, tussilagone]","Terminal elimination half-life ([1]; rat plasma, compared among the three types of compounds, Farfarae Flos extract 3.90 and 7.80 g·kg^−1): shortest; 24 h stability Remain (%) [2, 7]: 95.0%; 24 h stability Remain (%) [2, 8]: 100%; 24 h stability Remain (%) [2, 9]: 92.1%; Long stability Remain (%) [2, 9]: 107%"

SMILES,"Cmax [1, 4] [ng/mL]","Tmax [1, 5] [h]","half-life [1, 5] [h]","MRT last [1, 5] [h]","MRT inf [1, 5] [h]","Tmax [1, 6] [h]","half-life [1, 6] [h]","MRT last [1, 6] [h]","MRT inf [1, 6] [h]","AUC(0–24h) [1, 5] [ng/mL ∗ h]","AUC(0–∞) [1, 5] [ng/mL ∗ h]","AUC(0–24h) [1, 6] [ng/mL ∗ h]","AUC(0–∞) [1, 6] [ng/mL ∗ h]","Freeze-thaw stability, percent remaining [2, 7] [%]","Long stability Remain (%) [2, 7] [%]","Long stability Remain (%) [2, 8] [%]","Freeze-thaw stability, percent remaining [2, 9] [%]","Cmax [1, 10] [ng/mL]","Freeze-thaw stability, percent remaining [2, 8] [%]",further results
"C[C@@H]1O[C@@H](OC[C@H]2O[C@@H](Oc3c(-c4ccc(O)c(O)c4)oc4cc(O)cc(O)c4c3=O)[C@H](O)[C@@H](O)[C@@H]2O)[C@H](O)[C@H](O)[C@H]1O [Rutin, rutin]",17.9 ± 17.6,,0.61 ± 0.46,1.95 ± 1.06,3.06 ± 1.3,0.32 ± 0.12,,2.79 ± 0.24,6.02 ± 4.7,39.49 ± 59.42,42.77 ± 60.06,104.04 ± 53.04,,116,89.6,97.0,,76.7 ± 55.5,,"T max [1, 5]: 0.39 ± 0.16 h; t 1/2 [1, 6]: 0.82 ± 0.51 h"

# From publication PMC8970883, “Simultaneous Determination of Seven Phenolic Acids, Two Flavonoids, and Tussilagone in Rat Plasma after Administration of Farfarae Flos Extract by LC–MS/MS” (Evidence-based Complementary and Alternative Medicine : eCAM, 2022)
